In patent US20260124192A1, “COMPOUNDS, COMPOSITIONS, AND METHODS OF TREATING RNA VIRAL INFECTIONS” (priority 2024, published 2026):
Where two headings read alike, the source gives them in different places.

Legend:
[1] = system: MCF7 wild-type cell lines; experiment: MCF7 growth inhibition assay (Cell Titre Glo 2.0); assay type: cell-based; conditions: Homo sapiens
Experimental: The growth inhibition properties of inhibitors on MCF7 wild-type cell lines were evaluated using the Cell Titre Glo 2.0 cell viability reagent. The assay utilized 384-well black clear bottom plates with 20 μl of MCF7 wild-type cell suspension mixed with reference/test compounds and 20 μl of Cell Titre Glo 2.0 reagent. Cells were seeded at a density of 1000 cells/well in DMEM High Glucose culture media+10% Fetal Bovine Serum (FBS). Staurosporine and Camptothecin served as positive controls for confirming cytotoxicity at a concentration of 30 μM, and vehicle control of 1% DMSO was used to standardize conditions across all test points. The assay and culture media both contained 1% DMSO. Assays were conducted in duplicate for each concentration of the test compounds. The incubation period for the assay was set at 120 hours, after which growth inhibition was assessed. Using a multi-mode reader, the assay readout was based on luminescence measured in Relative Light Units (RLUs). The viability luminescence signal was monitored continually from the same wells over an extended period, allowing for detailed analysis of cell viability. Measurements were taken using an integration time ranging from 0.25 to 1 second across plates designated for various time points.
Cells were maintained and seeded in 384 […] plates, maintaining 1000 cells/well. Seeded plates were incubated at 37° C., 5% CO2 for 16-18 hours to ensure optimal cell adherence and growth. Post-incubation, reference, and test compounds were added carefully to the wells for further processing. Plates were incubated again at 37° C., 5% CO2 for 120 hours (5 days) to allow compound effects. This was followed by the addition of CTG reagent as per the kit's instruction protocol for 30 minutes and RLU data to be recorded. Post plate read data to be analyzed using GraphPad Prism for software IC50 value generation.
Next, the NCEs were tested for selective estrogen regulation modulation activity by using a growth inhibition assay. The assay is performed on MCF7 cells, which are derived from a hormone-dependent breast cancer that stops growing upon estrogen receptor inhibition. […] Staurosporine and Camptothecin served as positive controls for cytotoxicity and 1% DMSO as the vehicle control.

[2] = system: MRC-5 cells; experiment: Cytotoxicity, XTT, MRC-5; conditions: read-out: CoV229E - TC50; MRC-5; XTT; six days
[3] = system: Huh-luc/neo-ET cells; experiment: XTT cell viability assay, Huh-luc/neo-ET; assay type: cell-based; conditions: XTT, 72 hours, read-out: HCV 1b - TC50
Experimental: (§1) Twenty-four hours after seeding the cells, the cell culture supernatant was removed from each well and replaced with 175 μL fresh complete medium minus G418. Test compounds were evaluated at a high-test concentration of 10 μM and five serial half-logarithmic dilutions in three biological replicates. In three biological replicates, Sofosbuvir was evaluated in parallel at a high-test concentration of 1 μM and five serial half-logarithmic dilutions. Compounds were first serially diluted in DMSO to 400× of each final in-well concentration. An intermediate 8× solution was prepared in a complete medium and then added to the cells in a volume of 25 μL per well. A complete medium containing an equal percentage of DMSO (v/v) was added to vehicle-treated control cells. The final DMSO concentration was 0.25% (v/v) for all samples. The cells were incubated for an additional 72 hours at 37° C./5% CO2, then HCV replication was measured by luciferase activity and cell viability was assessed in parallel using an XTT colorimetric assay.
(§2) Huh-luc/neo-ET cell viability was measured at 72 hours after treatment using the tetrazolium dye XTT (2,3-bis(2-methoxy-4-nitro-5-sulfophenyI)-5[(phenylamino)carbonyl]-2H-tetrazolium hydroxide). Mitochondrial enzymes of metabolically active cells metabolize XTT-tetrazolium to a soluble formazan product. XTT solution was prepared fresh at 1 mg/mL in DMEM. Phenazine methosulfate (PMS) solution was prepared at 0.15 mg/mL in PBS and stored in the dark at −20° C. An XTT/PMS stock was prepared immediately before use by adding 40 μL of PMS per ml of XTT solution. Fifty microliters (50 μL) XTT/PMS were added per well, and the cells were incubated for 4 hours at 37° C. The cell culture plates were then sealed with adhesive plate sealers and shaken gently or inverted several times to mix the soluble formazan product. The formazan product was measured spectrophotometrically by absorbance at 450/650 nm on a Vmax plate reader (Molecular Devices). The raw data in Softmax Pro 5.4.2 software was imported into Microsoft Excel for further analysis. Data are presented as absorbance values (450/650 nm) or the percentage of viable cells relative to vehicle-treated control (mean+1—standard deviation, n=3 biological replicates from one independent experiment).

[4] = system: CoV229E; experiment: Anti-Coronavirus 229E cytoprotection (CPE) assay, MRC-5 (Method 3); assay type: cell-based, human Coronavirus 229E
[5] = Cytotoxicity, XTT, MRC-5; conditions: human
[6] = XTT cell viability assay, Huh-luc/neo-ET; assay type: cell-based; conditions: human, Huh-luc/neo-ET cells, XTT, 72 hours, read-out: HCV 1b - TC50
Experimental: as §1, §2

[7] = system: HCV genotype 1b replicon; experiment: microbe, parasite or virus in culture; assay type: cell-based, Hepatitis C Virus; conditions: for EC50: Hepatitis C virus; for HCV 1b - percent effect: @ 10 μM
[8] = MCF7 growth inhibition, 120 hours, read-out: MCF-7 IC50
[9] = Human coronavirus 229E, MRC5, […], read-out: CoV229E - EC50 (μM), MRC-5, XTT cytoprotection, six days
[10] = Huh-luc/neo-ET replicon, 72 hours, luciferase, read-out: HCV 1b - EC50

Structure (SMILES): C[C@]12CC[C@@H]3c4ccc(O)cc4C[C@@H](CCCCCCCCC[S+]([O-])CCCC(F)(F)C(F)(F)F)[C@H]3[C@@H]1CC[C@@H]2O (stereo partly shown) [Fulvestrant, reference compound]
- IC50 ([1]; MCF7, 120 h, read-out: MCF-7 IC50 (μM)): 0.00089 µM
- IC50 ([1]; MCF7, read-out: IC50, MCF7 growth inhibition): 0.00089 µM

Structure (SMILES): COc1ccc(-c2c(Cc3ccc(OCCN4CCCCC4)cc3)c3ccc(OC)cc3n2C)cc1 [MCAA-01]
- CC50 [2]: > 5 µM
- CC50 [3]: > 10 µM
- EC50 ([4]; MRC-5, XTT cytoprotection, six days, read-out: CoV229E - EC50): 1.88 µM

Structure (SMILES): O=C(O)c1ccc(-c2c(CC3CCCC3)c3ccc(F)cc3n2Cc2ccc(OCCN3CCCCC3)cc2)cc1 [MCAA-02]
- IC50 [1, 8]: > 10 µM
- CC50 at 6 days [5]: > 5 µM
- CC50 at 72 h [6]: > 10 µM
- EC50 [4, 9]: 2.78 µM
- EC50 [7, 10]: > 10 µM

Structure (SMILES): O=C(O)c1ccc(-c2c(CC3CCCC3)c3ccc(F)cc3n2Cc2ccc(OCCC3CCCCC3)cc2)cc1 [MCAA-03]
- IC50 [1, 8]: > 10 µM
- CC50 at 6 days [5]: 2.47 µM
- CC50 at 72 h [6]: > 10 µM
- CoV229E - percent effect ([4]; @ 5 μM, MRC-5): 24% @
- EC50 [7, 10]: 8.43 µM

Structure (SMILES): Cc1c(-c2ccc(O)cc2)n(Cc2ccc(OCCC3CCCCC3)cc2)c2ccc(O)cc12 [MCAA-04]
- IC50 [1, 8]: 2.24 µM
- CC50 at 6 days [5]: 2.7 µM
- CC50 at 72 h [6]: > 10 µM
- CoV229E - percent effect ([4]; @ 1.58 μM, MRC-5): 25% @
- EC50 [7, 10]: > 10 µM

Structure (SMILES): COc1ccc(-c2c(Cc3ccc(OCCC4CCCCC4)cc3)c3ccc(OC)cc3n2C)cc1 [MCAA-05]
- IC50 [1, 8]: > 10 µM
- CC50 at 6 days [5]: > 5 µM
- CC50 at 72 h [6]: > 10 µM
- EC50 [4, 9]: > 5 µM
- EC50 [7, 10]: > 10 µM

Structure (SMILES): Fc1ccc(-c2cc3sccc3n2Cc2ccc(OCCN3CCCCC3)cc2)cc1 [MCAA-06]
- IC50 [1, 8]: 3.77 µM
- CC50 at 6 days [5]: 1.53 µM
- CC50 at 72 h [6]: > 10 µM
- EC50 [4, 9]: 0.29 µM
- EC50 [7, 10]: > 10 µM

Structure (SMILES): Fc1ccc(-c2cc3sccc3n2Cc2ccc(OCCC3CCCCC3)cc2)cc1 [MCAA-07]
- IC50 [1, 8]: > 10 µM
- CC50 at 6 days [5]: > 5 µM
- CC50 at 72 h [6]: > 10 µM
- CoV229E - percent effect ([4]; @ 5 μM, MRC-5): 11% @
- HCV 1b - percent effect ([7]; Huh-luc/neo-ET replicon): 30% @

Structure (SMILES): Nc1cccc2nc(-c3ccc(F)cc3)n(Cc3ccc(OCCN4CCCCC4)cc3)c12 [MCAA-08]
- IC50 [1, 8]: > 10 µM
- CC50 at 6 days [5]: > 5 µM
- CC50 at 72 h [6]: > 10 µM
- CoV229E - percent effect ([4]; @ 5 μM, MRC-5): 33% @
- EC50 [7, 10]: 9.59 µM

Structure (SMILES): Nc1cccc2nc(-c3ccc(F)cc3)n(Cc3ccc(OCCC4CCCCC4)cc3)c12 [MCAA-09]
- IC50 [1, 8]: 1.21 µM
- CC50 at 6 days [5]: > 5 µM
- CC50 at 72 h [6]: > 10 µM
- CoV229E - percent effect ([4]; @ 5 μM, MRC-5): 13% @
- EC50 [7, 10]: > 10 µM

Structure (SMILES): Nc1cccc2c1nc(-c1ccc(F)cc1)n2Cc1ccc(OCCN2CCCCC2)cc1 [MCAA-10]
- IC50 [1, 8]: 0.53 µM
- CC50 at 6 days [5]: > 5 µM
- CC50 at 72 h [6]: > 10 µM
- EC50 [4, 9]: 2.85 µM
- EC50 [7, 10]: 7.2 µM

Structure (SMILES): Nc1cccc2c1nc(-c1ccc(F)cc1)n2Cc1ccc(OCCC2CCCCC2)cc1 [MCAA-11]
- IC50 [1, 8]: 1.66 µM
- CC50 at 6 days [5]: > 5 µM
- CC50 at 72 h [6]: 5.82 µM
- EC50 [4, 9]: 2.74 µM
- EC50 [7, 10]: 4.19 µM

Structure (SMILES): O=[N+]([O-])c1cccc2nc(-c3ccc(F)cc3)n(Cc3ccc(OCCN4CCCCC4)cc3)c12 [MCAA-12]
- IC50 [1, 8]: 1.15 µM
- CC50 at 6 days [5]: > 5 µM
- CC50 at 72 h [6]: > 10 µM
- EC50 [4, 9]: 2.94 µM
- EC50 [7, 10]: 2.78 µM

Structure (SMILES): O=[N+]([O-])c1cccc2c1nc(-c1ccc(F)cc1)n2Cc1ccc(OCCN2CCCCC2)cc1 [MCAA-13]
- IC50 [1, 8]: 2.47 µM
- CC50 at 6 days [5]: > 5 µM
- CC50 at 72 h [6]: > 10 µM
- EC50 [4, 9]: 2.96 µM
- EC50 [7, 10]: 7.05 µM

Structure (SMILES): O=[N+]([O-])c1cccc2nc(-c3ccc(F)cc3)n(Cc3ccc(OCCC4CCCCC4)cc3)c12 [MCAA-14]
- IC50 [1, 8]: 4.38 µM
- CC50 at 6 days [5]: > 5 µM
- CC50 at 72 h [6]: > 10 µM
- CoV229E - percent effect ([4]; @ 5 μM, MRC-5): 31% @
- HCV 1b - percent effect ([7]; Huh-luc/neo-ET replicon): 34% @

Structure (SMILES): O=[N+]([O-])c1cccc2c1nc(-c1ccc(F)cc1)n2Cc1ccc(OCCC2CCCCC2)cc1 [MCAA-15]
- IC50 [1, 8]: 0.57 µM
- CC50 at 6 days [5]: > 5 µM
- CC50 at 72 h [6]: > 10 µM
- EC50 [4, 9]: > 5 µM
- HCV 1b - percent effect ([7]; Huh-luc/neo-ET replicon): 38% @

Structure (SMILES): CCC(CC)COC(=O)[C@H](C)N[P@](=O)(OC[C@H]1O[C@@](C#N)(c2ccc3c(N)ncnn23)[C@H](O)[C@@H]1O)Oc1ccccc1 [Remdesivir, reference compound]
- CC50 at 6 days [5]: > 1 µM
- EC50 ([4]; Human coronavirus 229E, MRC5, […], read-out: CoV229E - EC50 (μM)): 0.14 µM

Structure (SMILES): CC(C)OC(=O)[C@H](C)N[P@](=O)(OC[C@H]1O[C@@H](n2ccc(=O)[nH]c2=O)[C@](C)(F)[C@@H]1O)Oc1ccccc1 [Sofosbuvir, reference compound]
- CC50 at 72 h [6]: > 1 µM
- EC50 ([7]; Huh-luc/neo-ET, 72 h, read-out: HCV 1b - EC50 (μM)): 0.06 µM
